Values after ≈ are worked out from the molar mass of the structure shown.
Legend:
Type in all cases: functional
Panonychus ulmi [1] = assay: Insecticidal activity against Panonychus ulmi HS in plum tree leaf assessed as mortality at adult stage compound treated by spray application measured after 7 to 8 days treatment
Panonychus ulmi [2] = assay: Resistance ratio, LC50 for adult Panonychus ulmi HS to LC50 for adult Panonychus ulmi PSR TK
Panonychus ulmi [3] = assay: Insecticidal activity against Panonychus ulmi PSR-TK in plum tree leaf assessed as mortality at adult stage compound treated by spray application measured after 7 to 8 days treatment
Panonychus ulmi [4] = assay: Insecticidal activity against Panonychus ulmi PSR-TK in plum tree leaf assessed as mortality at larvae stage compound treated by spray application measured after 7 to 8 days treatment
Panonychus ulmi [5] = assay: Resistance ratio, LC50 for adult Panonychus ulmi HS to LC50 for adult Panonychus ulmi GE 16/09
Panonychus ulmi [6] = assay: Resistance ratio, LC50 for larvae Panonychus ulmi HS to LC50 for larvae Panonychus ulmi PSR TK
Panonychus ulmi [7] = assay: Insecticidal activity against Panonychus ulmi HS in plum tree leaf assessed as larvae mortality compound treated by spray application measured after 7 to 8 days treatment
Panonychus ulmi [8] = assay: Insecticidal activity against Panonychus ulmi HS in plum tree leaf assessed as egg mortality compound treated by spray application measured after 7 to 8 days treatment
Panonychus ulmi [9] = assay: Insecticidal activity against Panonychus ulmi PSR-TK in plum tree leaf assessed as mortality at egg stage compound treated by spray application measured after 7 to 8 days treatment
Panonychus ulmi [10] = assay: Resistance ratio, LC50 for egg Panonychus ulmi HS to LC50 for egg Panonychus ulmi PSR TK
Panonychus ulmi [11] = assay: Insecticidal activity against Panonychus ulmi Ge15/09 in plum tree leaf assessed as egg mortality compound treated by spray application measured after 7 to 8 days treatment
Panonychus ulmi [12] = assay: Resistance ratio, LC50 for larvae Panonychus ulmi Ge14/09 to LC50 for larvae Panonychus ulmi HS
Panonychus ulmi [13] = assay: Insecticidal activity against Panonychus ulmi Ge13/09 in plum tree leaf assessed as egg mortality compound treated by spray application measured after 7 to 8 days treatment
Panonychus ulmi [14] = assay: Resistance ratio, LC50 for egg Panonychus ulmi Ge16/09 to LC50 for egg Panonychus ulmi HS
Panonychus ulmi [15] = assay: Resistance ratio, LC50 for larvae Panonychus ulmi Ge13/09 to LC50 for larvae Panonychus ulmi HS
Panonychus ulmi [16] = assay: Resistance ratio, LC50 for egg Panonychus ulmi Ge15/09 to LC50 for egg Panonychus ulmi HS
Panonychus ulmi [17] = assay: Resistance ratio, LC50 for egg Panonychus ulmi Ge14/09 to LC50 for egg Panonychus ulmi HS
Panonychus ulmi [18] = assay: Insecticidal activity against Panonychus ulmi Ge15/09 in plum tree leaf assessed as larvae mortality compound treated by spray application measured after 7 to 8 days treatment
Panonychus ulmi [19] = assay: Insecticidal activity against Panonychus ulmi Ge16/09 in plum tree leaf assessed as larvae mortality compound treated by spray application measured after 7 to 8 days treatment
Panonychus ulmi [20] = assay: Resistance ratio, LC50 for larvae Panonychus ulmi Ge15/09 to LC50 for larvae Panonychus ulmi HS
Panonychus ulmi [21] = assay: Resistance ratio, LC50 for egg Panonychus ulmi Ge13/09 to LC50 for egg Panonychus ulmi HS
Panonychus ulmi [22] = assay: Insecticidal activity against Panonychus ulmi Ge14/09 in plum tree leaf assessed as egg mortality compound treated by spray application measured after 7 to 8 days treatment
Panonychus ulmi [23] = assay: Insecticidal activity against Panonychus ulmi Ge13/09 in plum tree leaf assessed as larvae mortality compound treated by spray application measured after 7 to 8 days treatment
Panonychus ulmi [24] = assay: Insecticidal activity against Panonychus ulmi Ge14/09 in plum tree leaf assessed as larvae mortality compound treated by spray application measured after 7 to 8 days treatment
Panonychus ulmi [25] = assay: Resistance ratio, LC50 for larvae Panonychus ulmi Ge16/09 to LC50 for larvae Panonychus ulmi HS
Panonychus ulmi [26] = assay: Insecticidal activity against Panonychus ulmi Ge16/09 in plum tree leaf assessed as egg mortality compound treated by spray application measured after 7 to 8 days treatment

Question: `CCCCCCCCCCCCC1=C(OC(C)=O)C(=O)c2ccccc2C1=O` [ACEQUINOCYL] was tested. Which LC50 (Panonychus ulmi [1]) did it give?
Answer: 2.75 µg/mL (≈ 7.15 µM)

Question: What about the RatioLC50 (Panonychus ulmi [2]) of the same molecule?
Answer: 3

Question: And the LC50 (Panonychus ulmi [3])?
Answer: 1.3 µg/mL (≈ 3.38 µM)

Question: For `COc1ccc(-c2ccccc2)cc1NNC(=O)OC(C)C` [BIFENAZATE], which LC50 (Panonychus ulmi [1]) is on record?
Answer: 1.42 µg/mL (≈ 4.73 µM)

Question: And the RatioLC50 (Panonychus ulmi [2])?
Answer: 1

Question: And the LC50 (Panonychus ulmi [3])?
Answer: 1.3 µg/mL (≈ 4.33 µM)

Question: Which LC50 (Panonychus ulmi [4]) does the source give for `Clc1ccccc1-c1nnc(-c2ccccc2Cl)nn1` [CLOFENTEZINE] here?
Answer: > 10000 µg/mL

Question: What about the RatioLC50 (Panonychus ulmi [5]) of the same molecule?
Answer: >3900

Question: What about the RatioLC50 (Panonychus ulmi [6]) of the same molecule?
Answer: >1800

Question: And the LC50 (Panonychus ulmi [7])?
Answer: 5.53 µg/mL (≈ 18.2 µM)

Question: And the LC50 (Panonychus ulmi [8])?
Answer: 61.3 µg/mL (≈ 202 µM)

Question: And the LC50 (Panonychus ulmi [9])?
Answer: > 10000 µg/mL

Question: And the RatioLC50 (Panonychus ulmi [10])?
Answer: >160

Question: How did the LC50 (Panonychus ulmi [1]) turn out when `Cc1nn(C)c(/C(OC(=O)C(C)(C)C)=C(\C#N)c2ccc(C(C)(C)C)cc2)c1C` [CYENOPYRAFEN] was run?
Answer: 0.3 µg/mL (≈ 0.762 µM)

Question: What about the RatioLC50 (Panonychus ulmi [2]) of the same molecule?
Answer: 23.5

Question: What about the LC50 (Panonychus ulmi [3]) of the same molecule?
Answer: 7.13 µg/mL (≈ 18.1 µM)

Question: How did the LC50 (Panonychus ulmi [4]) turn out when `CCOc1cc(C(C)(C)C)ccc1C1COC(c2c(F)cccc2F)=N1` (stereo not given) [ETOXAZOLE] was run?
Answer: > 10000 µg/mL

Question: And the RatioLC50 (Panonychus ulmi [6])?
Answer: 10

Question: And the LC50 (Panonychus ulmi [7])?
Answer: 0.15 µg/mL (≈ 0.417 µM)

Question: For `C[C@@H]1[C@@H](c2ccc(Cl)cc2)SC(=O)N1C(=O)NC1CCCCC1` [HEXYTHIAZOX], which LC50 (Panonychus ulmi [4]) is on record?
Answer: 4.05 µg/mL (≈ 11.5 µM)

Question: What about the RatioLC50 (Panonychus ulmi [5]) of the same molecule?
Answer: >20000

Question: What about the RatioLC50 (Panonychus ulmi [6]) of the same molecule?
Answer: >20000

Question: And the LC50 (Panonychus ulmi [7])?
Answer: 0.43 µg/mL (≈ 1.22 µM)

Question: What about the LC50 (Panonychus ulmi [8]) of the same molecule?
Answer: 5.99 µg/mL (≈ 17 µM)

Question: What about the LC50 (Panonychus ulmi [9]) of the same molecule?
Answer: 4.32 µg/mL (≈ 12.2 µM)

Question: And the RatioLC50 (Panonychus ulmi [10])?
Answer: >1600

Question: Which results are given for `CCC(C)(C)C(=O)OC1=C(c2ccc(Cl)cc2Cl)C(=O)OC12CCCCC2` [SPIRODICLOFEN]?
Answer: LC50 (Panonychus ulmi [11]): 0.96 µg/mL (≈ 2.33 µM); RatioLC50 (Panonychus ulmi [12]): 33; LC50 (Panonychus ulmi [4]): > 10000 µg/mL; RatioLC50 (Panonychus ulmi [6]): >7000; LC50 (Panonychus ulmi [13]): 0.59 µg/mL (≈ 1.43 µM); LC50 (Panonychus ulmi [7]): 1.39 µg/mL (≈ 3.38 µM); RatioLC50 (Panonychus ulmi [14]): 1.2; RatioLC50 (Panonychus ulmi [15]): 12; LC50 (Panonychus ulmi [8]): 0.52 µg/mL (≈ 1.26 µM); LC50 (Panonychus ulmi [9]): > 10000 µg/mL; RatioLC50 (Panonychus ulmi [16]): 1.8; RatioLC50 (Panonychus ulmi [17]): 2.9; LC50 (Panonychus ulmi [18]): 27.6 µg/mL (≈ 67.1 µM); LC50 (Panonychus ulmi [19]): 59.6 µg/mL (≈ 145 µM); RatioLC50 (Panonychus ulmi [20]): 27; RatioLC50 (Panonychus ulmi [21]): 1.1; LC50 (Panonychus ulmi [22]): 1.53 µg/mL (≈ 3.72 µM); LC50 (Panonychus ulmi [23]): 12.1 µg/mL (≈ 29.4 µM); LC50 (Panonychus ulmi [24]): 33 µg/mL (≈ 80.2 µM); RatioLC50 (Panonychus ulmi [25]): 59; RatioLC50 (Panonychus ulmi [10]): 56; LC50 (Panonychus ulmi [26]): 0.66 µg/mL (≈ 1.6 µM)

Question: How did the LC50 (Panonychus ulmi [4]) turn out when `Cc1cc(C)c(C2=C(OC(=O)CC(C)(C)C)C3(CCCC3)OC2=O)c(C)c1` [SPIROMESIFEN] was run?
Answer: 3.73 µg/mL (≈ 10.1 µM)

Question: What about the RatioLC50 (Panonychus ulmi [6]) of the same molecule?
Answer: 30.4

Question: And the LC50 (Panonychus ulmi [7])?
Answer: 0.13 µg/mL (≈ 0.351 µM)

Question: And the LC50 (Panonychus ulmi [8])?
Answer: 1.07 µg/mL (≈ 2.89 µM)

Question: And the LC50 (Panonychus ulmi [9])?
Answer: 0.36 µg/mL (≈ 0.972 µM)

Question: And the RatioLC50 (Panonychus ulmi [10])?
Answer: 4

Question: `CCOC(=O)OC1=C(c2cc(C)ccc2C)C(=O)N[C@]12CC[C@@H](OC)CC2` [SPIROTETRAMAT] was tested. Which LC50 (Panonychus ulmi [4]) did it give?
Answer: 538 µg/mL (≈ 1440 µM)

Question: What about the RatioLC50 (Panonychus ulmi [6]) of the same molecule?
Answer: 3

Question: What about the LC50 (Panonychus ulmi [7]) of the same molecule?
Answer: 1.09 µg/mL (≈ 2.92 µM)

Question: What does the source list for `CCc1nn(C)c(C(=O)NCc2ccc(C(C)(C)C)cc2)c1Cl` [TEBUFENPYRAD]?
Answer: LC50 (Panonychus ulmi [1]): 0.37 µg/mL (≈ 1.11 µM); RatioLC50 (Panonychus ulmi [2]): 30.3; LC50 (Panonychus ulmi [3]): 11.2 µg/mL (≈ 33.5 µM)

Reference: ChEMBL document CHEMBL3045857, “Monitoring of spirodiclofen susceptibility in field populations of European red mites, Panonychus ulmi (Koch) (Acari: Tetranychidae), and the cross-resistance pattern of a laboratory-selected strain” (2011)
